According to ChEMBL document CHEMBL5113469, “Synthesis and biological evaluation of a tumor-selective degrader of PARP1” (Bioorg Med Chem, 2022):
Activity calls are given as the source filed them. No cut-off for these calls is given here.

Assays:
[1] = tested on: MDA-MB-436; experiment: Antiproliferative activity against human MDA-MB-436 cells assessed as cell growth inhibition incubated for 5 days by MTT assay; assay type: functional, cell-based; conditions: MDA-MB-436, 120 h
[2] = tested on: CAPAN-1; experiment: Antiproliferative activity against human CAPAN-1 cells assessed as cell growth inhibition incubated for 5 days by MTT assay; assay type: functional, cell-based; conditions: CAPAN-1, 120 h
[3] = tested on: MDA-MB-468; experiment: Antiproliferative activity against human MDA-MB-468 cells assessed as cell growth inhibition incubated for 5 days by MTT assay; assay type: functional, cell-based; conditions: MDA-MB-468, 120 h
[4] = tested on: MDA-MB-231; experiment: Antiproliferative activity against human MDA-MB-231 cells assessed as cell growth inhibition incubated for 5 days by MTT assay; assay type: functional, cell-based; conditions: MDA-MB-231, 120 h
[5] = molecular target: T1, Protein cereblon/Poly [ADP-ribose] polymerase 1 (Homo sapiens, UniProt P09874+Q96SW2); experiment: PROTAC activity at CRBN/PARP1 in human L02 cells assessed as induction of PARP1 degradation incubated for 24 hrs by western blot analysis; assay type: cell-based
Target sequence in this assay (P09874 whole entry): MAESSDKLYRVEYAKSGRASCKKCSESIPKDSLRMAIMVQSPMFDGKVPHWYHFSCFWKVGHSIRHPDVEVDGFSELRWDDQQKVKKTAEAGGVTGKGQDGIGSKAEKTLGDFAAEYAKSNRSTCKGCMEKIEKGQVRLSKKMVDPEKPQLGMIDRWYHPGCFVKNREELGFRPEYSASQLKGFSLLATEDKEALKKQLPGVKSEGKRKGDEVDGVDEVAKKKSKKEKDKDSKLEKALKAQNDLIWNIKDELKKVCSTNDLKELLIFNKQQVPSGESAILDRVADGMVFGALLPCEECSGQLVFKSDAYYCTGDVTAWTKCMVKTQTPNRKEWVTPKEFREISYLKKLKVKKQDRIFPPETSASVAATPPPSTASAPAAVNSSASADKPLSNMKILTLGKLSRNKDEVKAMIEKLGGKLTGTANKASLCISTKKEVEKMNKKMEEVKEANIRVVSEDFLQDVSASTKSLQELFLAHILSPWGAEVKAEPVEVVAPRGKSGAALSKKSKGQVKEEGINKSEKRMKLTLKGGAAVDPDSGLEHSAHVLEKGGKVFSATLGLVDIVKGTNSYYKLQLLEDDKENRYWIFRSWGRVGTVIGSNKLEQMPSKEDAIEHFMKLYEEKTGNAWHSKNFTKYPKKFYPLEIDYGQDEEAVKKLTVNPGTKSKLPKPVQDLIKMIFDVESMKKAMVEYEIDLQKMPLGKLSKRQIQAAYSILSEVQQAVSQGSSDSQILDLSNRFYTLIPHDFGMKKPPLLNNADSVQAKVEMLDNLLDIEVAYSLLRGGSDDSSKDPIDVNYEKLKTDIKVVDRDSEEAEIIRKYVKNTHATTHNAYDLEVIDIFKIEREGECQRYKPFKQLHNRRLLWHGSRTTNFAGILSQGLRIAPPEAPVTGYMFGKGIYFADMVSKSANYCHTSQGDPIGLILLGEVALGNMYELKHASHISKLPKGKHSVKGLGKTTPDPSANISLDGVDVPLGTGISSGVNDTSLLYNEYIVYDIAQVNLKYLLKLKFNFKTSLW
Target sequence in this assay (Q96SW2 whole entry): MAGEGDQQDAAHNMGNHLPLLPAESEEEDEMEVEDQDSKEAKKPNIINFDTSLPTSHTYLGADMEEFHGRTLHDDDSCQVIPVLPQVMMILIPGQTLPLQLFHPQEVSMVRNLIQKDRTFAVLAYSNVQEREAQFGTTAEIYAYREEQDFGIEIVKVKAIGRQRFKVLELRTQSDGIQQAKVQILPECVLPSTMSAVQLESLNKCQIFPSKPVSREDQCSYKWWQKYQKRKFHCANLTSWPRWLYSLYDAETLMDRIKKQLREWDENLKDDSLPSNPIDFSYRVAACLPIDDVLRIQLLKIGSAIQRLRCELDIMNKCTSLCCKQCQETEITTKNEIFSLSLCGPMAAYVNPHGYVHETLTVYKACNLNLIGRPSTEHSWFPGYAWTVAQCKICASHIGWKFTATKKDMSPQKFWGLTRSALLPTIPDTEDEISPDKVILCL

[6] = tested on: MDA-MB-231; experiment: Induction of cell cycle arrest in human MDA-MB-231 cells assessed as accumulation at G0/G1 phase at 0.312 uM incubated for 24 hrs by propidium iodide staining based flow cytometry analysis (reference value: 32.62 %); assay type: functional
[7] = tested on: MDA-MB-231; experiment: Induction of cell cycle arrest in human MDA-MB-231 cells assessed as accumulation at G2/M phase at 0.312 uM incubated for 24 hrs by propidium iodide staining based flow cytometry analysis (reference value: 27.14 %); assay type: functional
[8] = tested on: MDA-MB-231; experiment: Induction of cell cycle arrest in human MDA-MB-231 cells assessed as accumulation at S phase at 0.312 uM incubated for 24 hrs by propidium iodide staining based flow cytometry analysis (reference value: 37.88 %); assay type: functional
[9] = tested on: MDA-MB-231; experiment: Induction of cell cycle arrest in human MDA-MB-231 cells assessed as accumulation at G0/G1 phase at 0.625 uM incubated for 24 hrs by propidium iodide staining based flow cytometry analysis (reference value: 32.62 %); assay type: functional
[10] = tested on: MDA-MB-231; experiment: Induction of cell cycle arrest in human MDA-MB-231 cells assessed as accumulation at G2/M phase at 0.625 uM incubated for 24 hrs by propidium iodide staining based flow cytometry analysis (reference value: 27.14 %); assay type: functional
[11] = tested on: MDA-MB-231; experiment: Induction of cell cycle arrest in human MDA-MB-231 cells assessed as accumulation at S phase at 0.625 uM incubated for 24 hrs by propidium iodide staining based flow cytometry analysis (reference value: 37.88 %); assay type: functional
[12] = tested on: MDA-MB-231; experiment: Induction of cell cycle arrest in human MDA-MB-231 cells assessed as accumulation at G0/G1 phase at 1.25 uM incubated for 24 hrs by propidium iodide staining based flow cytometry analysis (reference value: 32.62 %); assay type: functional
[13] = tested on: MDA-MB-231; experiment: Induction of cell cycle arrest in human MDA-MB-231 cells assessed as accumulation at G2/M phase at 1.25 uM incubated for 24 hrs by propidium iodide staining based flow cytometry analysis (reference value: 27.14 %); assay type: functional
[14] = tested on: MDA-MB-231; experiment: Induction of cell cycle arrest in human MDA-MB-231 cells assessed as accumulation at S phase at 1.25 uM incubated for 24 hrs by propidium iodide staining based flow cytometry analysis (reference value: 37.88 %); assay type: functional
[15] = tested on: MDA-MB-231; experiment: Induction of cell cycle arrest in human MDA-MB-231 cells assessed as accumulation at G0/G1 phase at 2.5 uM incubated for 24 hrs by propidium iodide staining based flow cytometry analysis (reference value: 32.62 %); assay type: functional
[16] = tested on: MDA-MB-231; experiment: Induction of cell cycle arrest in human MDA-MB-231 cells assessed as accumulation at G2/M phase at 2.5 uM incubated for 24 hrs by propidium iodide staining based flow cytometry analysis (reference value: 27.14 %); assay type: functional
[17] = tested on: MDA-MB-231; experiment: Induction of cell cycle arrest in human MDA-MB-231 cells assessed as accumulation at S phase at 2.5 uM incubated for 24 hrs by propidium iodide staining based flow cytometry analysis (reference value: 37.88 %); assay type: functional
[18] = tested on: MDA-MB-231; experiment: Induction of cell cycle arrest in human MDA-MB-231 cells assessed as accumulation at G0/G1 phase at 5 uM incubated for 24 hrs by propidium iodide staining based flow cytometry analysis (reference value: 32.62 %); assay type: functional
[19] = tested on: MDA-MB-231; experiment: Induction of cell cycle arrest in human MDA-MB-231 cells assessed as accumulation at G2/M phase at 5 uM incubated for 24 hrs by propidium iodide staining based flow cytometry analysis (reference value: 27.14 %); assay type: functional
[20] = tested on: MDA-MB-231; experiment: Induction of cell cycle arrest in human MDA-MB-231 cells assessed as accumulation at S phase at 5 uM incubated for 24 hrs by propidium iodide staining based flow cytometry analysis (reference value: 37.88 %); assay type: functional
[21] = molecular target: T1, Protein cereblon/Poly [ADP-ribose] polymerase 1; experiment: PROTAC activity at CRBN/PARP1 in human MDA-MB-231 cells assessed as induction of PARP1 degradation at 1 uM incubated for 24 hrs by western blot analysis; assay type: cell-based
Target sequence in this assay (P09874 2-1014 limits assumed): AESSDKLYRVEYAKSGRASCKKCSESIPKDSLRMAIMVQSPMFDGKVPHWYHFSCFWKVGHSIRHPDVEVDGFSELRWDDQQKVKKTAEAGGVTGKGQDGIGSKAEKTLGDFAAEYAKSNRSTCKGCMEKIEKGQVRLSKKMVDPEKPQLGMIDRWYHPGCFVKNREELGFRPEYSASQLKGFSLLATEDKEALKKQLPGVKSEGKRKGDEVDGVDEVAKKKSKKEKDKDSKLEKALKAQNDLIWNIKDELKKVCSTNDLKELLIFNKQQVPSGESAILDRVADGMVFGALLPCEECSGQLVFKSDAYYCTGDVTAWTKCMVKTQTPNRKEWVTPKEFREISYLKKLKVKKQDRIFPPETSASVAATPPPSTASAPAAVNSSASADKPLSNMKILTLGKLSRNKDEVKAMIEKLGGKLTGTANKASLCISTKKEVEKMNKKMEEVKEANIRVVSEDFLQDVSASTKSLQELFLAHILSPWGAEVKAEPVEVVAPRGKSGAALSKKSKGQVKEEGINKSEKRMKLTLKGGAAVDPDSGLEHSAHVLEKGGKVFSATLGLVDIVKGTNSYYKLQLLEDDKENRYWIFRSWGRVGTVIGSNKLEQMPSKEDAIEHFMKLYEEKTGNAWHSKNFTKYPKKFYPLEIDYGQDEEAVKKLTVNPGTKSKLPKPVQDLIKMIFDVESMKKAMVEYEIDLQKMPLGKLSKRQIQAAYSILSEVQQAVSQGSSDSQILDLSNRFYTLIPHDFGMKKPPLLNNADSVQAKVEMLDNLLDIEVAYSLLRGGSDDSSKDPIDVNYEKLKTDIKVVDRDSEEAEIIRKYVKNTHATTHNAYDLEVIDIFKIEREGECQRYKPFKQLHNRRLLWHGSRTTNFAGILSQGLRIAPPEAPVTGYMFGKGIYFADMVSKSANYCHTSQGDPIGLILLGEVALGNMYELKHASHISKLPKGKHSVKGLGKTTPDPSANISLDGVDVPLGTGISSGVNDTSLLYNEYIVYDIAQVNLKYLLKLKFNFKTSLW
Target sequence in this assay (Q96SW2 whole entry partner): as the sequence (Q96SW2 whole entry) above

Row | Structure (SMILES) | IC50 [1] | IC50 [3] | IC50 [4] | IC50 [2] | other results
1 | O=C1CCC(N2C(=O)c3cccc(NC(=O)CNCCC(=O)N4CCN(C(=O)c5cc(Cc6n[nH]c(=O)c7ccccc67)ccc5F)CC4)c3C2=O)C(=O)N1 (stereo not given) | > 10 µM | > 20 µM | > 20 µM | > 10 µM | –
2 | O=C(CCCCCCCCCCC(=O)N1CCN(C(=O)c2cc(Cc3n[nH]c(=O)c4ccccc34)ccc2F)CC1)NCCNc1cccc2c1C(=O)N(C1CCC(=O)NC1=O)C2=O (stereo not given) | – | – | – | – | DC50 [5]: 0.00289 µM
3 | O=C(c1cc(Cc2n[nH]c(=O)c3ccccc23)ccc1F)N1CCN(C(=O)C2CC2)CC1 [OLAPARIB] | 0.02 µM | 4.19 µM | – | 0.053 µM | Activity [6]: 35.88%; Activity [7]: 26.17%; Activity [8]: 46.21%; Activity [9]: 33.68%; Activity [10]: 31.86%; Activity [11]: 33.33%; Activity [12]: 29.71%; Activity [13]: 34.71%; Activity [14]: 33.8%; Activity [15]: 28.07%; Activity [16]: 37.91%; Activity [17]: 38.31%; Activity [18]: 23.6%; Activity [19]: 39.58%; Activity [20]: 37.59%

Now from value to compound, other results behind:

Row | IC50 [1] | IC50 [3] | IC50 [4] | Structure (SMILES) | IC50 [2] | other results
4 | 6.8 µM | > 20 µM | > 20 µM | O=C1CCC(N2C(=O)c3cccc(NC(=O)CNCCCC(=O)N4CCN(C(=O)c5cc(Cc6n[nH]c(=O)c7ccccc67)ccc5F)CC4)c3C2=O)C(=O)N1 (stereo not given) | 8.64 µM | –
5 | 0.034 µM | 3.11 µM | 4.13 µM | O=C1CCC(N2C(=O)c3cccc(NC(=O)CNCCCCCCCCCCCC(=O)N4CCN(C(=O)c5cc(Cc6n[nH]c(=O)c7ccccc67)ccc5F)CC4)c3C2=O)C(=O)N1 (stereo not given) | 0.065 µM | –
6 | 5.82 µM | > 20 µM | > 20 µM | O=C1CCC(N2C(=O)c3cccc(NC(=O)CNCCCCC(=O)N4CCN(C(=O)c5cc(Cc6n[nH]c(=O)c7ccccc67)ccc5F)CC4)c3C2=O)C(=O)N1 (stereo not given) | 6.53 µM | –
7 | 0.21 µM | 6.08 µM | 7.54 µM | O=C1CCC(N2C(=O)c3cccc(NC(=O)CNCCCCCCCCC(=O)N4CCN(C(=O)c5cc(Cc6n[nH]c(=O)c7ccccc67)ccc5F)CC4)c3C2=O)C(=O)N1 (stereo not given) | 0.59 µM | Activity [21]: Active
